Source: ChEMBL document CHEMBL4177553, “Rapid screening the potential mechanism-based inhibitors of CYP3A4 from Tripterygium wilfordi based on computer approaches combined with in vitro bioassay” (Bioorg Med Chem, 2017)

Key:
[1] = target: Cytochrome P450 2C9 (Homo sapiens, UniProt P11712); experiment: Inhibition of CYP2C9 in human liver microsomes assessed as reduction in formation of tolbutamide to 4-Hydroxytolbutamide at 50 uM preincubated for 30 mins followed by substrate addition measured after 15 mins in presence of NADPH by UPLC-MS analysis; type: ADME; conditions: 0.25 h
Sequence of Cytochrome P450 2C9 (P11712 whole entry): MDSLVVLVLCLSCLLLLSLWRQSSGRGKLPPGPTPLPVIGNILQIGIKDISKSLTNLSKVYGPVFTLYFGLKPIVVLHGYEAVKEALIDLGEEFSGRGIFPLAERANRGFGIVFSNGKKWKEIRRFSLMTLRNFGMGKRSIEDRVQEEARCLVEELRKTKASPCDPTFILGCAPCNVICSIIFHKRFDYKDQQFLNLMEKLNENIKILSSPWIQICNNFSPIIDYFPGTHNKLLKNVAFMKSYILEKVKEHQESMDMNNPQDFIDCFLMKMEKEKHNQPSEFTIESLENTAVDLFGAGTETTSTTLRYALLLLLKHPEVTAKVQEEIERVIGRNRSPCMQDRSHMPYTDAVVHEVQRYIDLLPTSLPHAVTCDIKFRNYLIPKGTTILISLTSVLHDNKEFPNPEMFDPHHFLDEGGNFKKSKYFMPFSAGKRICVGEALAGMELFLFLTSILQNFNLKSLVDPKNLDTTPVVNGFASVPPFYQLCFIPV

[2] = target: Cytochrome P450 2C19 (Homo sapiens, UniProt P33261); experiment: Inhibition of CYP2C19 in human liver microsomes assessed as reduction in formation of mephenytoin to 4-Hydroxy mephenytoin at 50 uM preincubated for 30 mins followed by substrate addition measured after 15 mins in presence of NADPH by UPLC-MS analysis; type: ADME; conditions: 0.25 h
Sequence of Cytochrome P450 2C19 (P33261 whole entry): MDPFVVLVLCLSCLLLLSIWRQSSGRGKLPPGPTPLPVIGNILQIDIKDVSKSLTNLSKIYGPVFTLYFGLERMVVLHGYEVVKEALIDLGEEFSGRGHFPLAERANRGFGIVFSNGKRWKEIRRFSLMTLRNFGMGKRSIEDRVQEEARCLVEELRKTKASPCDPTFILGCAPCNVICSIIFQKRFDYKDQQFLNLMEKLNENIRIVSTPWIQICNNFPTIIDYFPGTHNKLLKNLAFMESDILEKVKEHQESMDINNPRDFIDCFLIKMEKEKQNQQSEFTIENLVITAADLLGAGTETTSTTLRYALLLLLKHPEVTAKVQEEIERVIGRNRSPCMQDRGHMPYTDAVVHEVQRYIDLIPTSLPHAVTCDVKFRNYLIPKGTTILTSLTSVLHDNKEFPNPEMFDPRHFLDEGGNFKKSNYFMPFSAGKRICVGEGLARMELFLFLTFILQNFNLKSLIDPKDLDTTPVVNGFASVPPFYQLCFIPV

[3] = target: T1, Cytochrome P450 3A4 (Homo sapiens, UniProt P08684); experiment: Inhibition of CYP3A4 in human liver microsomes assessed as reduction in formation of midazolam to 1-Hydroxy midazolam at 50 uM preincubated for 30 mins followed by substrate addition measured after 15 mins in presence of varying levels of NADPH by UPLC-MS analysis; type: ADME; conditions: 0.25 h
T1 sequence (P08684 whole entry): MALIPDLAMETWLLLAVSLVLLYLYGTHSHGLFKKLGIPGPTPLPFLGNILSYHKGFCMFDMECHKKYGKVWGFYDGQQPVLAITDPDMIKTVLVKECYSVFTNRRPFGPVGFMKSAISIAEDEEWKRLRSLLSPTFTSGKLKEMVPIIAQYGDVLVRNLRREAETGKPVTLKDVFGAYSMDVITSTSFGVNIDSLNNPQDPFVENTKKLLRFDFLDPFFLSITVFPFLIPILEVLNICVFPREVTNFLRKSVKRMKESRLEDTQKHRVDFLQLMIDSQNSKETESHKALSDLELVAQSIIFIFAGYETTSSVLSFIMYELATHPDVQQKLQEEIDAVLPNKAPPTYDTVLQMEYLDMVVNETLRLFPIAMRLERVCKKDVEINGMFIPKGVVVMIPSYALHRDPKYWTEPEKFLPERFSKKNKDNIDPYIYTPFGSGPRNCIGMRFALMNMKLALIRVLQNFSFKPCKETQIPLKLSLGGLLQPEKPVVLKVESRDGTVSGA

[4] = target: T1, Cytochrome P450 3A4; experiment: Drug metabolism in human liver microsomes assessed as CYP3A4-mediated metabolite formation at […] preincubated for 5 mins followed by NADPH addition measured after 2 hrs by UPLC-MS/MS analysis; type: ADME
[5] = target: Cytochrome P450 2D6 (Homo sapiens, UniProt P10635); experiment: Inhibition of CYP2D6 in human liver microsomes assessed as reduction in formation of dextromethorphan to dextrorphan at 50 uM preincubated for 30 mins followed by substrate addition measured after 15 mins in presence of NADPH by UPLC-MS analysis; type: ADME; conditions: 0.25 h
Sequence of Cytochrome P450 2D6 (P10635 whole entry): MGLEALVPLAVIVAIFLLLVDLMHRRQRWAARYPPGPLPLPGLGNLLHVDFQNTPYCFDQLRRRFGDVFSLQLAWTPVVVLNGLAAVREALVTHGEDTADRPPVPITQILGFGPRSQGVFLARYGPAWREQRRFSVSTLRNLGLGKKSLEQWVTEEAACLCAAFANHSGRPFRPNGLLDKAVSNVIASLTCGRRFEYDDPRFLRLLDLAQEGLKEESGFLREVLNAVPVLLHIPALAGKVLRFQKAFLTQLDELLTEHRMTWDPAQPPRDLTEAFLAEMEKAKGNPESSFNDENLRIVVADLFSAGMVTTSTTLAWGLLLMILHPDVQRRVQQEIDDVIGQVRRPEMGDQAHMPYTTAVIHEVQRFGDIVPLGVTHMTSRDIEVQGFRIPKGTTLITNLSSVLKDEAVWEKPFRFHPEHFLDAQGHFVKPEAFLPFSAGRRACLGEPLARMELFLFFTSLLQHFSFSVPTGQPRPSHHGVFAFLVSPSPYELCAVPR

[6] = target: T2, Cytochrome P450 1A2 (Homo sapiens, UniProt P05177); experiment: Inhibition of CYP1A2 in human liver microsomes assessed as reduction in formation of phenacetin to acetaminophen at 50 uM preincubated for 30 mins followed by substrate addition measured after 15 mins in presence of NADPH by UPLC-MS analysis; type: ADME; conditions: 0.25 h
T2 sequence (P05177 whole entry): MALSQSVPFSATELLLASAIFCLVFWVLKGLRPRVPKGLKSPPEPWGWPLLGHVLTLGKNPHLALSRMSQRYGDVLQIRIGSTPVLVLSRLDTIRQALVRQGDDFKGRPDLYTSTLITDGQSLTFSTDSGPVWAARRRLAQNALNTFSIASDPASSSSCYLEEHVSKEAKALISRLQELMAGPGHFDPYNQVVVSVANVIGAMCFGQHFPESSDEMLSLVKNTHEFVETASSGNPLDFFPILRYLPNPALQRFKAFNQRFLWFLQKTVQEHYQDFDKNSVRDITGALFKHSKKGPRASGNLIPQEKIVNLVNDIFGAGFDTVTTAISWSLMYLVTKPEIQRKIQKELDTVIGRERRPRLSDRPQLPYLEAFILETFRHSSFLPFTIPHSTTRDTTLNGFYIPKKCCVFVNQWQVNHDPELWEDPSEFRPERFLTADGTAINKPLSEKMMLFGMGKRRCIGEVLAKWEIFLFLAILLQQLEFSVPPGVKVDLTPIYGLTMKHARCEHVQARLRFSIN

[7] = target: Cytochrome P450 2E1 (Homo sapiens, UniProt P05181); experiment: Inhibition of CYP2E1 in human liver microsomes assessed as reduction in formation of chlorzoxazone to 6-Hydroxy chlorzoxazone at 50 uM preincubated for 30 mins followed by substrate addition measured after 15 mins in presence of NADPH by UPLC-MS analysis; type: ADME; conditions: 0.25 h
Sequence of Cytochrome P450 2E1 (P05181 whole entry): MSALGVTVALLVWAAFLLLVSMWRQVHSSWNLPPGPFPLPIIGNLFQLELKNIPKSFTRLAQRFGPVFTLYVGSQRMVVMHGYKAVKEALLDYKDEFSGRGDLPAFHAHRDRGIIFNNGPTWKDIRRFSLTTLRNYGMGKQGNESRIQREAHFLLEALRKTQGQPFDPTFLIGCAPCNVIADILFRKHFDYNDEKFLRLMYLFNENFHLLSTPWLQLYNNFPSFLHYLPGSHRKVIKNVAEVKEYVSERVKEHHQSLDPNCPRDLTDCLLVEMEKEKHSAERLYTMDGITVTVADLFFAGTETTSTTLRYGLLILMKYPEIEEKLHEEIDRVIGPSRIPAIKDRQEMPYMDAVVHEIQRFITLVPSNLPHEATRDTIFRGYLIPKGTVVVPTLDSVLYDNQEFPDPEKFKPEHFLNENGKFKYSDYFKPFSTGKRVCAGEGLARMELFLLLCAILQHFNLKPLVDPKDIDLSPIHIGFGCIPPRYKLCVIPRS

[8] = target: T1, Cytochrome P450 3A4; experiment: Inhibition of CYP3A4 in human liver microsomes assessed as reduction in formation of midazolam to 1-Hydroxy midazolam at 50 uM preincubated for 30 mins followed by substrate addition measured after 15 mins in presence of NADPH by UPLC-MS analysis; type: ADME; conditions: 0.25 h
[9] = target: T1, Cytochrome P450 3A4; experiment: Drug metabolism in human liver microsomes assessed as CYP3A4-mediated M1 metabolite formation at […] preincubated for 5 mins followed by NADPH addition measured after 2 hrs by UPLC-MS/MS analysis; type: ADME
[10] = Retention time of the compound in human liver microsomes by UPLC-MS/MS analysis; type: ADME, microsome
[11] = target: T1, Cytochrome P450 3A4; experiment: Drug metabolism in human liver microsomes assessed as CYP3A4-mediated M2 metabolite formation at […] preincubated for 5 mins followed by NADPH addition measured after 2 hrs by UPLC-MS/MS analysis; type: ADME
[12] = Drug metabolism in human liver microsomes assessed as monohydroxy formation in presence of GSH and water by UPLC-MS/MS analysis; type: ADME, microsome
[13] = target: T1, Cytochrome P450 3A4; experiment: Inhibition of CYP3A4 in human liver microsomes assessed as reduction in formation of midazolam to 1-Hydroxy midazolam preincubated for 30 mins followed by substrate addition measured after 15 mins in presence of NADPH by UPLC-MS analysis; type: ADME; conditions: 0.25 h

| Structure (SMILES) | inhibition (INH) [1] | inhibition (INH) [2] | inhibition (INH) [3] | Drug metabolism [4] | inhibition (INH) [5] | inhibition (INH) [6] | inhibition (INH) [7] | inhibition (INH) [8] | Drug metabolism [9] | Retention_time [10] [min] | Drug metabolism [11] | Drug metabolism [12] | inhibition (INH) [13] |
| --- | --- | --- | --- | --- | --- | --- | --- | --- | --- | --- | --- | --- | --- |
| CC(=O)OC[C@@]12[C@H](OC(C)=O)[C@H](OC(C)=O)[C@@H]3[C@@H](OC(C)=O)[C@@]14O[C@@]3(C)COC(=O)c1cccnc1[C@@H](C)[C@H](C)C(=O)O[C@@H]([C@H](OC(C)=O)[C@@H]2OC(C)=O)[C@]4(C)O | Not Active | Not Active | Not Active | Metabolite_Notdetected | Not Active | Not Active | Not Active | Active |  |  |  |  |  |
| CC(=O)OC[C@]12[C@H](OC(C)=O)[C@H](OC(C)=O)[C@@H]3[C@@H](OC(C)=O)[C@@]14O[C@@]3(C)COC(=O)c1cccnc1CC[C@@](C)(O)C(=O)O[C@@H]([C@H](OC(=O)c1ccccc1)[C@@H]2OC(C)=O)[C@]4(C)O | Active | Active |  |  | Active | Active | Active | Active |  |  |  |  |  |
| CC(=O)OC[C@]12[C@H](OC(C)=O)[C@H](OC(C)=O)[C@@H]3[C@@H](OC(C)=O)[C@@]14O[C@@]3(C)COC(=O)c1cccnc1CC[C@H](C)C(=O)O[C@@H]([C@H](OC(=O)c1ccccc1)[C@@H]2OC(C)=O)[C@]4(C)O | Active | Active |  |  | Active | Active | Active | Active |  |  |  |  |  |
| CC(=O)OC[C@]12[C@H](OC(C)=O)[C@H](OC(C)=O)[C@@H]3[C@@H](OC(C)=O)[C@@]14O[C@@]3(C)COC(=O)c1cccnc1CC[C@@](C)(O)C(=O)O[C@@H]([C@H](OC(=O)c1ccoc1)[C@@H]2OC(C)=O)[C@]4(C)O | Not Active | Not Active | Active |  | Not Active | Not Active | Not Active | Active | Metabolite_Detected | 10.55 | Metabolite_Detected | Metabolite_Detected | Dose-dependent effect |
| CC(=O)OC[C@]12[C@H](OC(C)=O)[C@H](OC(C)=O)[C@@H]3[C@@H](OC(C)=O)[C@@]14O[C@@]3(C)COC(=O)c1cccnc1CCC(C)C(=O)O[C@@H]([C@H](OC(=O)c1ccoc1)[C@@H]2OC(C)=O)[C@]4(C)O (stereo not given in full) | Not Active | Not Active | Not Active | Metabolite_Notdetected | Not Active | Not Active | Not Active | Active |  |  |  |  |  |
